{"source": "patent US20260327244A1", "about": "“PYRIDO[4,3-D]PYRIMIDINE COMPOUNDS” (Pfizer Inc., priority 2022, published 2026)", "key": {"[1]": {"target": "T1, wild-type (WT) KRAS (aa1-185) (Homo sapiens, UniProt P01116)", "T1 construct": "wild-type (WT) KRAS (aa1-185)", "T1 sequence (P01116 1-185 isoform P01116-2)": "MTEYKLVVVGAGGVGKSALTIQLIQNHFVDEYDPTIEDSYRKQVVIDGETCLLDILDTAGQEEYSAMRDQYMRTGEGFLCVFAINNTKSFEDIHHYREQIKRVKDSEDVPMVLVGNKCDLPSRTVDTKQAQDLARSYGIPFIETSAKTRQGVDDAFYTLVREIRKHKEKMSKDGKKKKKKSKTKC", "assay": "KRAS Surface Plasma Resonance (SPR) binding assay, WT KRAS", "settings": "SPR at 10 °C, geometric mean when tested more than once", "from_the_text": "(§1) No additional regeneration was used.\n(§2) Compound dissociation was monitored for at least 3600 seconds. […] No additional regeneration was used."}, "WT HRAS (aa2-184)": {"target": "T2, WT HRAS (aa2-184) (Homo sapiens, UniProt P01112)", "T2 construct": "WT HRAS (aa2-184)", "T2 sequence (P01112 2-184)": "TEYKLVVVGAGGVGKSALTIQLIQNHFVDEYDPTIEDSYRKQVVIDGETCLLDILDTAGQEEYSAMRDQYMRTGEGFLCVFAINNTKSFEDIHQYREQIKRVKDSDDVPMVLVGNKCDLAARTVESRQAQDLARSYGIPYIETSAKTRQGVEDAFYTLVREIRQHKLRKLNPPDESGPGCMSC", "assay": "SPR binding assay, WT HRAS", "settings": "SPR at 10 °C, geometric mean when tested more than once", "from_the_text": "as §1, §2"}, "WT NRAS (aa2-185)": {"target": "T3, WT NRAS (aa2-185) (Homo sapiens, UniProt P01111)", "T3 construct": "WT NRAS (aa2-185)", "T3 sequence (P01111 2-185)": "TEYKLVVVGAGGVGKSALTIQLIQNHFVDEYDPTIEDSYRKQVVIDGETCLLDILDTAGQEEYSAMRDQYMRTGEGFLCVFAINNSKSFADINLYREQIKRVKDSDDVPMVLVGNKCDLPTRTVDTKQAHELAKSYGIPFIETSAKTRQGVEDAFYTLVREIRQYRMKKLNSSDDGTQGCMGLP", "assay": "SPR binding assay, WT NRAS", "settings": "SPR at 10 °C, geometric mean when tested more than once", "from_the_text": "as §1, §2"}, "G12D KRAS (aa1-185) [2]": {"target": "T4, G12D KRAS (aa1-185) (Homo sapiens, UniProt P01116, G12D)", "T4 sequence (P01116 1-185 isoform P01116-2 G12D)": "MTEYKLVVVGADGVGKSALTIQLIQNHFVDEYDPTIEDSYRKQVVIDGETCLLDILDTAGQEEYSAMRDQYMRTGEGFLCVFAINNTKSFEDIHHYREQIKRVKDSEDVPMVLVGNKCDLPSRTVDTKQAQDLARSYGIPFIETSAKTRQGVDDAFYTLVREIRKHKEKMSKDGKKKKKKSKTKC", "assay": "biochemical", "quoted_text": "(§3) SPR assay was used to measure the kinetic binding constant (KD) of Examples of the present invention.\n(§4) The binding affinity and kinetics of Examples of the present invention were measured by Surface Plasmon Resonance (SPR) using Biacore 8K or 8K+ (Cytiva, Marlborough, MA) instruments. Recombinant, C-terminal site-specific biotinylated, wild-type (WT) KRAS (aa1-185), G12D KRAS (aa1-185), G12C KRAS (aa2-184), G12V KRAS (aa2-184), WT HRAS (aa2-184) and WT NRAS (aa2-185) proteins purified in presence of 1 μM GDP were used in these experiments. Binding measurements were performed parallelly in sets of either WT/G12D/G12C/G12V KRAS or WT K/H/N RAS proteins.\n(§5) Biacore instrument was desorbed and docked with a Series S Sensor Chip SA. The proteins were diluted to 50 μg/mL with the assay buffer (50 mM HEPES, 150 mM NaCl, 10 μM GDP, 5 mM MgCl2, 0.5 mM TCEP, 5% glycerol, 0.02% Tween-20, 2% DMSO, pH 7.2) and immobilized at a flow rate of 3 μL/min at 10° C. with a contact time of 15 min. to capture ~3000-4000 RUs of proteins on the surface. The functionalized surface was then equilibrated with assay buffer for approximately 1 hour. Un-functionalized SA surfaces with no immobilized protein served as reference for binding kinetic analysis. Compound binding kinetics were measured in either multi-cycle or single-cycle kinetic format.\n(§6) A 2-fold, 10-point serial dilution of test compounds was set-up in a 96-well microplate (Greiner; Cat #650101) with a top concentration of either 10 μM or 100 μM. Binding kinetics was measured at 10° C. by injecting serial dilution of compounds onto both reference and RAS immobilized channels at a flow rate of 100 μL/min and association time of 90 seconds. Compound dissociation was monitored for at least 400 seconds during each cycle. No additional regeneration was used. DMSO calibration curve was obtained before and after compound analysis by injecting 0-4% of DMSO in assay buffer. A suitable compound with known affinity and kinetics was tested once in every experiment as a positive control to assess activity of the captured protein on the surface.\n(§7) A 3-fold, 6-point serial dilution of compounds was set-up in a deep 96-well microplate (Greiner Bio; Cat #780201) with the highest concentration of 1 μM (concentration range: 0.004-1 μM). Binding kinetics was measured at 10° C. by injecting serial dilutions of compounds in increasing order onto reference as well as RAS immobilized channels at a flow rate of 100 μL/min and association time of 120 seconds. Compound dissociation was monitored for at least 3600 seconds. Two buffer blanks were also run in a single-cycle kinetics format before the compound run for double referencing. No additional regeneration was used. DMSO calibration curve was obtained before and after compound analysis by injecting 0-4% of DMSO in the assay buffer. A suitable compound with known affinity and kinetics was tested once in every experiment as a positive control to assess activity of the captured protein on the surface.\n(§8) Both MCK and SCK data were processed and analyzed using Biacore Insight evaluation software (Cytiva, Marlborough, MA)). […] The adequateness of the fit was judged by c^2 values and the randomness of residue distribution.\n(§9) A geometric mean of binding constant KD was provided when an Example was tested more than once (n is testing replicate number)."}, "G12C KRAS (aa2-184) [3]": {"target": "T5, G12C KRAS (aa2-184) (Homo sapiens, UniProt P01116, G12C)", "T5 sequence (P01116 2-184 isoform P01116-2 G12C)": "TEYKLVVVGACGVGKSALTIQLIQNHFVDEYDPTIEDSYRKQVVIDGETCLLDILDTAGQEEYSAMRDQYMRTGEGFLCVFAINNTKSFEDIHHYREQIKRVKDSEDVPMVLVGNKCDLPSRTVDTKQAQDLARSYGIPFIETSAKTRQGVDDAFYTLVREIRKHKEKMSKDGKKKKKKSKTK", "assay": "biochemical", "quoted_text": "as §3, §4, §5, §6, §7, §8, §9"}, "G12V KRAS (aa2-184) [4]": {"target": "T6, G12V KRAS (aa2-184) (Homo sapiens, UniProt P01116, G12V)", "T6 sequence (P01116 2-184 isoform P01116-2 G12V)": "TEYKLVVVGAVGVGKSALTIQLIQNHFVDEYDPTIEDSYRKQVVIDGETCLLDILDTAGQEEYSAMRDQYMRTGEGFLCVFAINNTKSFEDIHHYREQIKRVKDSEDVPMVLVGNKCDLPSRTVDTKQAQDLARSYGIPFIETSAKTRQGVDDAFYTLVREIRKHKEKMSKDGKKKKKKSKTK", "assay": "biochemical", "quoted_text": "as §3, §4, §5, §6, §7, §8, §9"}, "[5]": {"assay": "Mouse PK study, unbound plasma exposure of Example 33 after oral dosing of female NSG mice", "type": "in vivo", "settings": "for Cav, ss, u / Cmax, u: unbound Example 33 in plasma, single oral dose 100 mg (active)/kg", "procedure": "FIG. 1 provides mouse PK study results showing unbound plasma concentrations of Example 33 in female NSG mouse plasma after oral dosing of female NSG Mice at 100 mg/kg (n=3, mean+/−SD). The solution of Example 33 was prepared using a Pluronic-based formulation [2.5% (w/v) Pluronic F-68 (Poloxamer 188)], and the suspension arms of both Example 33 and Example 34 were prepared using a 0.5% (w/v) methylcellulose formulation.\nThe solution formulation of Example 33 was an aqueous solution with 2.5% (w/v) Pluronic F-68 (Poloxamer 188). The amorphous suspension formulations of Example 33 and Example 34 were made using in 0.5% (w/v) methylcellulose in water."}, "G12D KRAS (aa1-185) [6]": {"target": "T4, G12D KRAS (aa1-185)", "quoted_text": "as §3, §4, §5, §6, §7, §8, §9"}, "G12C KRAS (aa2-184) [7]": {"target": "T5, G12C KRAS (aa2-184)", "quoted_text": "as §3, §4, §5, §6, §7, §8, §9"}, "G12V KRAS (aa2-184) [8]": {"target": "T6, G12V KRAS (aa2-184)", "quoted_text": "as §3, §4, §5, §6, §7, §8, §9"}, "[9]": {"settings": "suspension, relative to Example 33 suspension, 100 mg (active)/kg oral"}, "[10]": {"settings": "suspension (0.5% methylcellulose)"}}, "note": "Where a name gives a salt, the structure may show the parent alone. Read-outs that look alike come from different tables or passages of the source.", "data": [{"smiles": "Oc1cc(-c2ncc3c(N4C[C@H]5CC[C@@H](C4)O5)nc(OC[C@@]45CCCN4C[C@H](F)C5)nc3c2F)c2c(F)c(F)ccc2c1", "note": "[Example 16, 5,6-difluoro-4-(8-fluoro-2-{[(2R,7aS)-2-fluorotetrahydro-1H-pyrrolizin-7a(5H)-yl]methoxy}-4-[(1R,5S)-8-oxa-3-azabicyclo[3.2.1]octan-3-yl]pyrido[4,3-d]pyrimidin-7-yl)naphthalen-2-ol, acetic acid salt]", "values": [{"measurement": "Kd", "setting": "[1]", "result": 5.82, "unit": "nM"}, {"measurement": "Kd", "setting": "WT HRAS (aa2-184)", "result": "> 10000", "unit": "nM"}, {"measurement": "Kd", "setting": "WT NRAS (aa2-185)", "result": "> 10000", "unit": "nM"}, {"measurement": "Kd", "setting": "G12D KRAS (aa1-185) [2]", "result": 23.8, "unit": "nM"}, {"measurement": "Kd", "setting": "G12C KRAS (aa2-184) [3]", "result": 8.57, "unit": "nM"}, {"measurement": "Kd", "setting": "G12V KRAS (aa2-184) [4]", "result": 5.73, "unit": "nM"}]}, {"smiles": "Oc1cc(-c2ncc3c(N4C[C@@H]5C[C@H](C4)[C@H](O)C5)nc(OC[C@@]45CCCN4C[C@H](F)C5)nc3c2F)c2c(Cl)cccc2c1", "note": "[Example 20, (1R,5R,6R)-3-[7-(8-chloro-3-hydroxynaphthalen-1-yl)-8-fluoro-2-{[(2R,7aS)-2-fluorotetrahydro-1H-pyrrolizin-7a(5H)-yl]methoxy}pyrido[4,3-d]pyrimidin-4-yl]-3-azabicyclo[3.2.1]octan-6-ol]", "values": [{"measurement": "Kd", "setting": "[1]", "result": 0.075, "unit": "nM"}, {"measurement": "Kd", "setting": "WT HRAS (aa2-184)", "result": 725, "unit": "nM"}, {"measurement": "Kd", "setting": "WT NRAS (aa2-185)", "result": 1000, "unit": "nM"}, {"measurement": "Kd", "setting": "G12D KRAS (aa1-185) [2]", "result": 0.138, "unit": "nM"}, {"measurement": "Kd", "setting": "G12C KRAS (aa2-184) [3]", "result": 0.629, "unit": "nM"}, {"measurement": "Kd", "setting": "G12V KRAS (aa2-184) [4]", "result": 0.098, "unit": "nM"}]}, {"smiles": "C#Cc1c(F)c(F)cc2cc(O)cc(-c3nc4c5c(nc(OC[C@@]67CCCN6C[C@H](F)C7)nc5c3F)N3CCCC[C@H]3CO4)c12", "note": "[Example 33, 5-ethynyl-6,7-difluoro-4-[(8aS)-4-fluoro-2-{[(2R,7aS)-2-fluorotetrahydro-1H-pyrrolizin-7a(5H)-yl]methoxy}-8,8a,9,10,11,12-hexahydro-7-oxa-1,3,6,12a-tetraazabenzo[4,5]cyclohepta[1,2,3-de]naphthalen-5-yl]naphthalen-2-ol]", "values": [{"measurement": "Kd", "setting": "[1]", "result": 0.023, "unit": "nM"}, {"measurement": "Cav Fold Increase", "setting": "[5]; [9]", "result": 1}, {"measurement": "Cmax Fold increase", "setting": "[5]; [9]", "result": 1}, {"measurement": "Cav, ss, u", "setting": "[5]; solution (2.5% Pluronic F-68)", "result": 0.30, "unit": "nM"}, {"measurement": "Cmax, u", "setting": "[5]; solution (2.5% Pluronic F-68)", "result": 0.60, "unit": "nM"}, {"measurement": "Cav, ss, u", "setting": "[5]; [10]", "result": 0.37, "unit": "nM"}, {"measurement": "Cmax, u", "setting": "[5]; [10]", "result": 0.48, "unit": "nM"}, {"measurement": "Kd", "setting": "G12D KRAS (aa1-185) [6]", "result": 0.019, "unit": "nM"}, {"measurement": "Kd", "setting": "G12C KRAS (aa2-184) [7]", "result": 0.019, "unit": "nM"}, {"measurement": "Kd", "setting": "G12V KRAS (aa2-184) [8]", "result": 0.096, "unit": "nM"}]}]}
